Test results published in doi:10.1101/2024.05.06.592687v1 (bioRxiv, 2024).
Entries after “also recorded” stand apart in the source; their conditions may differ.

Assays:
[1] = Hexapeptide aggregative properties; assay type: physicochemical; conditions: for Aggregation properties, in words: 800 μM (16p: 288 μM)
[2] = assay type: physicochemical; conditions: 800 μM
[3] = Negative staining transmission electron microscopy of peptide structures; assay type: physicochemical; conditions: for Structure (TEM): negative staining, 1% uranyl acetate; for Diameter / Structures comments / Pitch length / Width / Diameter, Tight / Diameter, Wide: negative staining TEM
[4] = Cryo-EM of peptide sample; assay type: physicochemical; conditions: data not shown
[5] = Reversibility of polymerized structures by dilution; assay type: physicochemical; conditions: polymerized at 2x Cr, diluted 8-fold to 0.25 Cr
[6] = Critical assembly concentration; assay type: physicochemical; conditions: sedimentable versus total peptide concentration
[7] = Hexapeptide amyloidogenicity; assay type: physicochemical; conditions: 800 μM (16p: 288 μM)
[8] = Solubility of hexapeptides in water; assay type: physicochemical; conditions: deionized water

Substance | Aggregation properties, in words [1] | Classification of the peptide (aggregative / amyloid / soluble), in words [2] | Structure (TEM) [3] | Structures comments [3] | also measured
IKQVYV [5p] | very weak | entirely soluble; also recorded: non-aggregative | – | – | –
IYVQKV [9p] | no | entirely soluble; also recorded: non-aggregative | crystal structures | – | Structures seen by Cryo-EM [4]: absence of structures
KQIVYV [20p] | – | aggregative | fibrillar structures; also recorded: Filament/strand bundles | Homogeneous / bundles | Diameter [3]: 13 ± 2 nm
KVQIVY [10p] | – | aggregative | structures resembling ribbons; also recorded: Rather flat and tight ribbons | Heterogeneous | –
KVQYVI [14p] | no | entirely soluble | – | – | –
KYIQVV [2p] | – | aggregative; also recorded: strong aggregation potential | structures resembling ribbons; also recorded: Ribbons/ Filaments | – | Diameter [3]: 10 ± 2 nm
KYVIQV [15p] | – | aggregative; also recorded: strong aggregation potential | structures resembling ribbons; also recorded: Twisted ribbons | Rather homogeneous | Pitch length [3]: 196 ± 34 nm; Width [3]: 21 ± 2 nm; Reversion of structures after dilution, in words [5]: only partial; Slope of the Cr linear regression [6]: 1.1
QKVVYI [18p] | – | amyloid | fibrillar structures | Heterogeneous | Diameter, Tight [3]: 9 nm; Diameter, Wide [3]: 18 nm; Pitch length [3]: 107 ± 14 nm; Width [3]: 29 ± 7 nm; Structure (TEM) ([3]; listed as 18p*): Twisted ribbons/fibers; Reversion of structures after dilution, in words [5]: almost total reversion; Slope of the Cr linear regression [6]: 0.84
QKVYIV [19p] | – | aggregative | fibrillar structures; also recorded: Tangle ribbons | Few twists and bundles | Width [3]: 11± 3 nm
QKYIVV [8p] | no | entirely soluble | – | – | –
QVIKYV [23p] | very weak | entirely soluble; also recorded: non-aggregative | – | – | –
VKVIYQ [7p] | – | aggregative; also recorded: strong aggregation potential | fibrillar structures; also recorded: Twisted fibers | Homogeneous perpendicular breaks | Diameter [3]: 17 ± 4 nm; Pitch length [3]: 138 ± 12 nm; Amyloidogenicity by Thioflavin T fluorescence, in words [7]: without fluorescence
VKVYIQ [11p] | – | amyloid; also recorded: amyloidogenic character | fibrillar structures | – | Diameter [3]: 5 ± 1 nm; Structure (TEM) ([3]; listed as 11p*): Stringy filaments/fibers; Reversion of structures after dilution, in words [5]: almost total reversion; Slope of the Cr linear regression [6]: 0.74
VKYQVI [3p] | very weak | entirely soluble; also recorded: non-aggregative | – | – | –
VQIVYK [ß1, reference compound] | – | – | fibrillar structures | Rather homogeneous | Diameter [3]: 9 ± 2 nm; Pitch length [3]: 105 ± 20 nm; Diameter ([3]; listed as β1): ~10 nm; Pitch length ([3]; listed as β1): ~100 nm; Structure (TEM) ([3]; listed as ß1*): Double/Twisted fibers
VQKIYV [4p] | no | entirely soluble; also recorded: non-aggregative | – | – | –
VQVIYK [12p] | – | amyloid | fibrillar structures | Twisting of at least four filaments | Diameter, Tight [3]: 7 nm; Diameter, Wide [3]: 15 nm; Pitch length [3]: 177 ± 26 nm; Structure (TEM) ([3]; listed as 12p*): Twisted Stringy filaments/fibers; Reversion of structures after dilution, in words [5]: almost total reversion
VQVKYI [21p] | – | amyloid; also recorded: amyloidogenic character | globular/ovoid structures | Variable size / aggregates | Diameter [3]: 25 ± 6 nm; Structure (TEM) ([3]; listed as 21p*): Globular/ovoid; Reversion of structures after dilution, in words [5]: almost total reversion
VQVYKI [22p] | – | aggregative; also recorded: soluble | fibrillar structures; also recorded: Twisted ribbons bundles/fibers | Highly heterogeneous | –
VVQKYI [6p] | very weak | entirely soluble; also recorded: non-aggregative | – | – | –
YIVVQK [13p] | no | entirely soluble | – | – | –
YQVIVK [17p] | – | aggregative | structures resembling ribbons | Flat/short tangled, heterogeneous | Width [3]: 14 ± 2 nm; Amyloidogenicity by Thioflavin T fluorescence, in words [7]: without fluorescence
YQVKIV [16p] | strong aggregation | strong aggregation potential | structures resembling ribbons; also recorded: Rather ribbons | Very homogeneous, perpendicular breaks | Pitch length [3]: 44 ± 4 nm; Width [3]: 22±3 nm; Amyloidogenicity by Thioflavin T fluorescence, in words [7]: not amyloidogenic; Aggregation Threshold ([1]; 16p studied at ~290 μM (288 μM) due to poor solubility in water): 17 µM; Solubility in water, in words [8]: poor solubility in water; Solubility in water, in words ([8]; listed as 16p*): low solubility in water
